Experiments:
[1] = molecular target: T1, HDAC6 (Homo sapiens, UniProt Q9UBN7); assay: Human HDAC enzyme inhibitor Fluor-De-Lys assay, HDAC6; type: biochemical; conditions: 1.3 nM total enzyme, 2.5 μM substrate BML-KI104, 3 hours pre-incubation, 60 min reaction, 23° C., 4-parameter fit
T1 sequence (Q9UBN7 1-1215): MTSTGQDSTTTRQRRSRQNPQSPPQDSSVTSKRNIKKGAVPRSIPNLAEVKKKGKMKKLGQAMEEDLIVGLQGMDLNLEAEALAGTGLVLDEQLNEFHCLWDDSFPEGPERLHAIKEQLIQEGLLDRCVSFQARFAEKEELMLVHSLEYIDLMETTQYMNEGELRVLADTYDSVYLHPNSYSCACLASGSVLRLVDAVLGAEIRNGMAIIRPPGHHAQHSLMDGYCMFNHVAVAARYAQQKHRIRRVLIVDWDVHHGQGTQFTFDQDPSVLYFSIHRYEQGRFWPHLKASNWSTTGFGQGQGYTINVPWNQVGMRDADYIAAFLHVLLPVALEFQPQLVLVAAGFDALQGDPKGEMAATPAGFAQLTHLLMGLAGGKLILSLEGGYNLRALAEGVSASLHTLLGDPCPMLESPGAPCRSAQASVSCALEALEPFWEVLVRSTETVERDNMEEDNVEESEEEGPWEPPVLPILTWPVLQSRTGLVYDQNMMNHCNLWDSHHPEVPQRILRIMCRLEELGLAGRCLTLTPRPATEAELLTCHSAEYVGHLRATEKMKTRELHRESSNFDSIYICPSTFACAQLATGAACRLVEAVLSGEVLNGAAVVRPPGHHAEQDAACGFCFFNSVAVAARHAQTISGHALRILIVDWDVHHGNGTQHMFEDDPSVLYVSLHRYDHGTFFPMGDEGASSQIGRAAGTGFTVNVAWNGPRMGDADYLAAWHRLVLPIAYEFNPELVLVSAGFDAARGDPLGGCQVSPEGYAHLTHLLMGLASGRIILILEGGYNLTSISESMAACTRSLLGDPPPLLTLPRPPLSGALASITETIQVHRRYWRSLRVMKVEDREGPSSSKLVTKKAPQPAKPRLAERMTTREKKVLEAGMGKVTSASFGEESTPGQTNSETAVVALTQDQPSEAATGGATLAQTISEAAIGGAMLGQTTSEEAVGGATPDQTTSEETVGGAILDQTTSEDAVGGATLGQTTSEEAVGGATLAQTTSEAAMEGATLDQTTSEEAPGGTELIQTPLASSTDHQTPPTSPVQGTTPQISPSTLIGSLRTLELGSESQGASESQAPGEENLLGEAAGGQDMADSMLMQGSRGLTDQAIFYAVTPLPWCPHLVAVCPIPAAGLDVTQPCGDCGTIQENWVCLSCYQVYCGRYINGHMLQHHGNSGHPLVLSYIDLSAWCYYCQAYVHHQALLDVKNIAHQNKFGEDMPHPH
Excerpt: (§1) Human HDAC Enzyme Inhibitor Fluor-De-Lys Assay Materials
Recombinant human HDAC8 (BML-SE145-0100) and HDAC10 (BML-SE559-0050) enzymes, HDAC substrates BML-KI104 and BML-K1178, and HDAC developer solutions BML-KI105 and BML-KI176 were purchased from Enzo Life Sciences. […] HDAC inhibitor suberoylanilide hydroxamic acid (SAHA) was obtained from Indofine and trichostatin A (TSA) was obtained from Sigma-Aldrich.
(§2) The histone deacetylase activities of HDAC1, HDAC2, HDAC3, HDAC6, and HDAC8 were measured in modified FLUOR DE LYS assays in 384-well format. In this assay, HDAC enzymes are initially incubated with an F-acetyl (or -trifluoroacetyl)-L-lysine-containing substrate with a C-terminal amide having aminomethylcoumarin as the amine component. HDACs cleave the F-acetyl group, rendering the resulting product susceptible to AMC cleavage by trypsin. The released AMC is then detected by its fluorescence.
(§3) The HDAC3/SMRT assay employed buffer B, consisting of 20 mM HEPES, pH 8.0, 1 mM MgCl2, 50 mM NaCl, 2.7 mM KCl, 0.05% BSA, 0.005% Tween 20, and 10 μM IP4. […] The HDAC8 assay employed buffer D, consisting of 20 mM HEPES, pH 8.0, 1 mM MgCl2, 100 mM NaCl, 20 mM KCl, 0.1% n-octyl-β-D-glucoside (Anatrace) and 0.05% BSA. All steps were performed at room temperature (23° C.). The assay was performed by pre-incubating serial dilutions of test compounds with the target HDAC prior to initiation with substrate. Each compound was titrated in a 10-point dose response, using a 1:3 fold dilution scheme, with 0.15 ul of solution added by ECHO555 to the plate, followed by the addition of 20 μl of the appropriate HDAC isoform diluted in appropriate assay buffer. […] Final conditions used for each assay were: 1. […] The reactions were stopped and developed by addition of 30 ul of HDAC developer solution containing a saturating level of HDAC inhibitor as follows: 1.

[2] = molecular target: human HDAC1 (Homo sapiens, UniProt Q13547); assay: Human HDAC enzyme inhibitor Fluor-De-Lys assay, HDAC1
Sequence of human HDAC1 (Q13547 whole entry): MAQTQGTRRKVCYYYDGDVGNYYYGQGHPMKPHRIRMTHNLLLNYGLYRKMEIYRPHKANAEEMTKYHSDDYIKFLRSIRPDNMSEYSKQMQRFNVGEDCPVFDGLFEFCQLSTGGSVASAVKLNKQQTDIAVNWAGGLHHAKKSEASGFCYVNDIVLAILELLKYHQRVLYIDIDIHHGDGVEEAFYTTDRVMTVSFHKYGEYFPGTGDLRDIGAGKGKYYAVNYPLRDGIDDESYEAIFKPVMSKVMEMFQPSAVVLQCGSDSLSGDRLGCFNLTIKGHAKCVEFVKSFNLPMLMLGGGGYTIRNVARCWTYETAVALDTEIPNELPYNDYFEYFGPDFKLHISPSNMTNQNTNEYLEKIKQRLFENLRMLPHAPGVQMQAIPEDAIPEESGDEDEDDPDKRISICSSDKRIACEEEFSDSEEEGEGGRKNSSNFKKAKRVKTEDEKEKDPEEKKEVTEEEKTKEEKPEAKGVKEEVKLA
Description: as §1, §2, §3

[3] = molecular target: human HDAC2 (Homo sapiens, UniProt Q92769); assay: Human HDAC enzyme inhibitor Fluor-De-Lys assay, HDAC2
Sequence of human HDAC2 (Q92769 whole entry): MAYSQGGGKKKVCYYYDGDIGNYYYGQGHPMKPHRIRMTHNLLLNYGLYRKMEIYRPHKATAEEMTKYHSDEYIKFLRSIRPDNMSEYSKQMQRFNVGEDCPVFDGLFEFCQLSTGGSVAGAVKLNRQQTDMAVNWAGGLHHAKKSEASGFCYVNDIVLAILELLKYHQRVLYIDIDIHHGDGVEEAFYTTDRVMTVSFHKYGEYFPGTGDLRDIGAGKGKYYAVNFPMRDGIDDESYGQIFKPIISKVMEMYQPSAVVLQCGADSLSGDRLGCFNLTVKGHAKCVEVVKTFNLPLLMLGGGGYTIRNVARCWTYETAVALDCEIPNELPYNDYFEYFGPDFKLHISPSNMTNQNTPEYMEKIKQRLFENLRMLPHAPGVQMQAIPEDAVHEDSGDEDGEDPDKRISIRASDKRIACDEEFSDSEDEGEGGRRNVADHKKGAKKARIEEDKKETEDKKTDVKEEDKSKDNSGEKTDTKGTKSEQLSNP
Description: as §1, §2, §3

[4] = molecular target: human HDAC3/SMRT heterodimer (Homo sapiens, UniProt O15379); assay: Human HDAC enzyme inhibitor Fluor-De-Lys assay, HDAC3/SMRT
Sequence of human HDAC3/SMRT heterodimer (O15379 whole entry): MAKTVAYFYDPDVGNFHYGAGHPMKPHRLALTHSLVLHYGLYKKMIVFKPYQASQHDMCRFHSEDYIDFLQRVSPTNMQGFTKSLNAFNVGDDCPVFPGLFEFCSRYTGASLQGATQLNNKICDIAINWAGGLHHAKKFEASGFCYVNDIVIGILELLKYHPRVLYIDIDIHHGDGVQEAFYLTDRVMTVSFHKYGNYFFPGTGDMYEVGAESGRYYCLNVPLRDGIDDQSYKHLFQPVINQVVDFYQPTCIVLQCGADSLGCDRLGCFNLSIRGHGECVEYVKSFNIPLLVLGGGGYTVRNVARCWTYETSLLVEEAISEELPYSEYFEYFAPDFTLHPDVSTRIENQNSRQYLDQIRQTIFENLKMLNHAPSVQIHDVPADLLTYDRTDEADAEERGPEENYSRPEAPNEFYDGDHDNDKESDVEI
Sequence of human HDAC3/SMRT heterodimer (Q9Y618 1-899 partner limits assumed): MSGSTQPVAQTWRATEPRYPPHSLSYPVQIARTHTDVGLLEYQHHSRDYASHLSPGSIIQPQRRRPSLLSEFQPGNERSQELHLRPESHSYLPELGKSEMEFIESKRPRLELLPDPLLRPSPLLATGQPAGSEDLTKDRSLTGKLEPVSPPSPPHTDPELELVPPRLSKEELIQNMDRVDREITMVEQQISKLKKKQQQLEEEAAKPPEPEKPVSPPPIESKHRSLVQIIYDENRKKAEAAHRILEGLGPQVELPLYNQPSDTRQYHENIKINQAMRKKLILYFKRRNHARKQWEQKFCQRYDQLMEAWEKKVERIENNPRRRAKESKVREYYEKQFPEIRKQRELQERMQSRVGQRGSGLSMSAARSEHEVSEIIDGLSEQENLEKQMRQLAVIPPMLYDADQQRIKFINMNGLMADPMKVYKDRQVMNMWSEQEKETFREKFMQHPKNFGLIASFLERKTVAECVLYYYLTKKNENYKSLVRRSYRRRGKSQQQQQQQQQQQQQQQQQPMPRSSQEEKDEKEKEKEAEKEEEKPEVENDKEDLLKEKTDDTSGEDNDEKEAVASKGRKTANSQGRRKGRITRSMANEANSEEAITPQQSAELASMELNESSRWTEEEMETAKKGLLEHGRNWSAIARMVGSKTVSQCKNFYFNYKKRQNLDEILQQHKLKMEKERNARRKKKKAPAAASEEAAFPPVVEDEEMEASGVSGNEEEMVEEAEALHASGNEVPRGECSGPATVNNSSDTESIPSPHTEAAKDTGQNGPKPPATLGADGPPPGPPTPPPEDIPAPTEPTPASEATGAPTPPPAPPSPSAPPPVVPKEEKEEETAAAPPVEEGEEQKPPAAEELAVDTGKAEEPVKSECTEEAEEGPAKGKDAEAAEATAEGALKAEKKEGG
Description: as §1, §2, §3

IC50 [1] [µM]	IC50 [2] [µM]	IC50 [3] [µM]	IC50 [4] [µM]	SMILES
≥ 45	–	–	–	CSc1cc(F)ccc1C(=O)NCCCC[C@H](NC(=O)c1cncs1)c1ncc(-c2ccc3ccccc3c2)[nH]1 [Example 5, (S)-N-(5-(4-fluoro-2-(methylthio)benzamido)-1-(5-(naphthalen-2-yl)-1H-imidazol-2-yl)pentyl)thiazole-5-carboxamide]
≥ 45	7.88	15.7	0.1	Nc1ccc(F)c(F)c1C(=O)NCCCC[C@H](NC(=O)c1cncs1)c1ncc(-c2ccc3ccccc3c2)[nH]1 [Example 9, (S)-N-(5-(6-amino-2,3-difluorobenzamido)-1-(5-(naphthalen-2-yl)-1H-imidazol-2-yl)pntyl)thiazole-5-carboxamide]
≥ 45	–	–	–	Nc1cc(F)c(F)cc1C(=O)NCCCC[C@H](NC(=O)c1cncs1)c1ncc(-c2ccc3ccccc3c2)[nH]1 [Example 27, (S)-N-(5-(2-amino-4,5-difluorobenzamido)-1-(5-(naphthalen-2-yl)-1H-imidazol-2-yl)pentyl)thiazole-5-carboxamide]
–	≥ 45	≥ 45	7	CSc1cc([N+](=O)[O-])ccc1C(=O)NCCCC[C@H](NC(=O)c1cncs1)c1ncc(-c2ccc3ccccc3c2)[nH]1 [Example 43, (S)-N-(5-(2-(methylthio)-4-nitrobenzamido)-1-(5-(naphthalen-2-yl)-1H-imidazol-2-yl)pentyl)thiazole-5-carboxamide]
–	≥ 45	≥ 45	0.379	COc1ccc2[nH]c(C)c(C(C)C(=O)N[C@@H](CCCCNC(=O)c3ccccc3SC)c3ncc(-c4cc5ccccc5nc4OC)[nH]3)c2c1 (stereo partly drawn) [Example 58, N-((5S)-5-(2-(5-methoxy-2-methyl-1H-indol-3-yl)propanamido)-5-(5-(2-methoxyquinolin-3-yl)-1H-imidazol-2-yl)pentyl)-2-(methylthio)benzamide]
11.6	–	–	–	CCN1CCC2(CC1)C[C@@H]2C(=O)N[C@@H](CCCCNC(=O)c1ccccc1SC)c1ncc(-c2cc3ccccc3nc2OC)[nH]1 [Example 60, (S)-6-ethyl-N-((S)-1-(5-(2-methoxyquinolin-3-yl)-1H-imidazol-2-yl)-5-(2-(methylthio)benzamido)pentyl)-6-azaspiro[2.5]octane-1-carboxamide]
≥ 45	–	–	–	COc1nc2ccccc2cc1-c1cnc([C@H](CCCCNC(=O)c2nc(C)ccc2O)NC(=O)c2cncs2)[nH]1 [Example 61, (S)-N-(5-(3-hydroxy-6-methylpicolinamido)-1-(5-(2-methoxyquinolin-3-yl)-1H-imidazol-2-yl)pentyl)thiazole-5-carboxamide]
–	≥ 45	≥ 45	0.671	COc1nc2ccccc2cc1-c1cnc(C2(CCCCNC(=O)c3ccccc3SC)CCC(=O)N2)[nH]1 (centres unmarked) [Example 62, N-(4-(2-(5-(2-methoxyquinolin-3-yl)-1H-imidazol-2-yl)-5-oxopyrrolidin-2-yl)butyl)-2-(methylthio)benzamide]
–	≥ 45	≥ 45	0.958	COc1nc2ccccc2cc1-c1cnc(C2(CCCCNC(=O)c3ccc(F)cc3SC)CCC(=O)N2)[nH]1 (centres unmarked) [Example 63]

Source: patent US12281109B2 (Merck Sharp & Dohme LLC, priority 2019, dated 2025)
